{
  "source": "patent US8697403B2",
  "about": "“Process and microorganisms for production of lipids from lignocellulosic wastes or residues” (Neste Oil Oyj, priority 2010, dated 2014)",
  "system": "strain G009",
  "experiment": "Lipase inhibition test: prevention of TAG degradation in cultivation of strain G009",
  "format": "cell-based, Streptomyces albus",
  "details": "G009, waste medium",
  "experimental": "Also g/l values of TAGs were estimated by image analysis using Image J program. The standard curve was prepared using concentration scale from 1 g/l up to 40 g/l and the titre of lipids in the culture broth was measured against the standard curve. The whole culture broth (solid stage cultivations) or separated mycelia was extracted with an equal volume of chloroform-methanol (Clf-MeOH; 2:1). Tubes were incubated in a shaker at RT for 1 hour. After centrifugation sample was taken from the extract and analysed by TLC and/or by GC. Dry extract weight was determined by drying 1-5 ml of extract at RT for one day in air blow after which mass was determined by weighing. The mass was given as grams per 1 liter of the culture broth. The spores of the strain […] were cultivated in the medium containing the following raw materials in 1 L of tap water, pH 7: Dextrose 75 20 g, Bagasse 20 g, Biowaste from bakery and garden (1:1) 5 or 10 g, Algae 25 to 50 g, MgSO4.7 H2O 1 g, KH2PO4 1 g and CaCO3 3 g. The cultivation conditions were 28° C., 300 rpm for 11 days. After 6 days of cultivations, 0.05 g/l AgNO3 or 0.4% of TritonX100 solution containing 0.05 g/l of CaCO3. The flasks without the said supplements were considered as controls for lipase inhibition treatment study. Cultivation was continued in the same conditions for 5 days more. The samples were taken after 7, 8 and 11 days of cultivations according to the general sampling protocols used in this invention and the results of sampling are shown here. The parallel cultivations were done with two concentrations of both algae debris and biowaste and the upper row of each test condition gave a result with higher concentration of both waste fractions.",
  "key": {"[1]": {"details": "supplement added after 6 days, sample 11 day"}},
  "data": [
    {"smiles": "O=[N+]([O-])[O-].[Ag+]", "note": "[AgNO3]", "values": [
      {"measurement": "Weight of Chloroform extract (g/l), 7 day", "setting": "28° C., 300 rpm, supplement added after 6 days (0.05 g/l AgNO3 or 0.4% TritonX100 solution containing 0.05 g/l CaCO3), sample 7 day", "result": 7.7, "unit": "g/L"},
      {"measurement": "Quantity of TAGs g/l by Image J, 7 day", "setting": "supplement added after 6 days, sample 7 day", "result": 4.8, "unit": "g/L"},
      {"measurement": "Quantity of TAGs g/l by Image J, 8 day", "setting": "supplement added after 6 days, sample 8 day", "result": 4.8, "unit": "g/L"},
      {"measurement": "Quantity of TAGs g/l by Image J, 11 day", "setting": "[1]", "result": 4.8, "unit": "g/L"},
      {"measurement": "Weight of Chloroform extract (g/l), 11 day", "setting": "[1]", "result": 8.5, "unit": "g/L"}
    ]}
  ]
}
